The nature of this test: Determination of aldehyde capture rate (nonenal as model aldehyde, HPLC quantification). Conditions: for Aldehyde consumption (100%): 0.05 mM compound, 0.025 mM nonenal, room temperature; for Capture rate (slope of the capture curve per unit time): higher absolute value of the slope = higher capture rate. The protocol:
In the aldehyde capture test disclosed in the present invention, the stable lipid metabolite, nonenal, was used as the model aldehyde to react with the compound of the Example. The specific protocol was as follows.
0.05 mM of the compounds of the Examples of the present invention were precisely weighed respectively and dissolved in 1.2 mL of a mixed solution (v/v=1:1) of triolein (Aladdin, G105172-5g) and linoleic acid (Aladdin, L100442-25g), respectively. 2.5 mL of PBS (Solarbio, P1020) solution containing 20% Captisol® (Aladdin, Cl25030-25 g) was added, and the solution was stirred at room temperature overnight. After the example compound was completely dissolved, 0.025 mM nonenal (Sigma, 255653-5G) was added, and the solution was stirred vigorously at room temperature. […] The solution was mixed vigorously by vortex for 2 minutes, and centrifuged at a low speed of 1000 r/min for 3 minutes. The supernatant was transferred to an injection vial. The nonenal in the reaction mixture was analyzed quantitatively by high performance liquid chromatography. The adduct resulted from the example compound of the present invention and nonenal was analyzed qualitatively by high performance liquid chromatography-mass spectrometry.
Liquid Chromatograph: Waters I Class;
Column: ACQUITY UPLC HSS T3 1.8 μm;
Column temperature: 40° C.;
Liquid chromatography condition: mobile phase A: acetonitrile containing 0.1% formic acid; B: water containing 0.1% formic acid;
Injection volume: 0.5 mL.
Gradient of the mobile phases: […]
In the developed detection method, the retention time of the model aldehyde nonenal was 2.42 minutes. • Mass spectrometry conditions: • Mass spectrometer: Waters TQ-S micro • Ion source: ESI^+ • Capillary voltage: 0.5 kV • Cone voltage: 10V • Source temperature: 150° C. • Degassing temperature: 500° C., degassing flow: 1000 L/Hr • SIM mode • m/z: 225.24 [(mExample 1−OH)+H]^+, 365.42 [madduct 1+H]^+
The time-varying diagram of the capture reaction of the compounds of the examples of the present invention to nonenal is shown in FIG. 1.

Data on 20 molecules can be found in patent publication US20240092744A1, “TRICYCLIC COMPOUND, AND PREPARATION METHOD THEREFOR AND MEDICAL USE THEREOF” (THE NATIONAL INSTITUTES OF PHARMACEUTICAL R&D CO., LTD., priority 2020, published 2024).

For the molecule `CC(C)(O)c1nc2c(cc1N)Oc1ccccc1O2` [Example 9, 2-(3-Aminobenzo[5,6][1,4]dioxino[2,3-b]pyridin-2-yl)propan-2-ol], under “135 minutes”, the “Aldehyde consumption (100%)” value is recorded as 0.10% and the “Capture rate (slope of the capture curve per unit time)” value is listed as −0.01. For the setting “180 minutes”, the “Aldehyde consumption (100%)” value amounted to 0.10% and the “Capture rate (slope of the capture curve per unit time)” value is reported as −0.04.
On to `CC(C)(O)c1cc2c(cc1N)C(C)(C)c1ccccc1-2` [Example 14, 2-(2-Amino-9,9-dimethyl-9H-fluoren-3-yl)propan-2-ol], for which, under “135 minutes”, the “Aldehyde consumption (100%)” value turned out to be 36.30% and the “Capture rate (slope of the capture curve per unit time)” value is −0.19. Where the note is “180 minutes”, the “Aldehyde consumption (100%)” value is 44.51% and the “Capture rate (slope of the capture curve per unit time)” value is −0.28.
As for `CC(C)(C)OC(=O)N1c2ccccc2Oc2cc(C(C)(C)O)c(N)cc21` [Example 29, tert-Butyl 2-amino-3-(2-hydroxypropan-2-yl)-10H-phenoxazine-10-carboxylate], the “Aldehyde consumption (100%)” value (135 minutes) was 6.52% and the “Aldehyde consumption (100%)” value (180 minutes) is 6.53%. For the same molecule, the “Capture rate (slope of the capture curve per unit time)” value runs as follows: (135 minutes) −0.04; (180 minutes) −0.04.
For the molecule `Cn1c2ccc(Cl)cc2c2cc(N)c(C(C)(C)O)nc21` [Example 13, 2-(3-Amino-6-chloro-9-methyl-9H-pyrido[2,3-b]indol-2-yl)propan-2-ol], under “135 minutes”, the “Aldehyde consumption (100%)” value was found to be 6.03% and the “Capture rate (slope of the capture curve per unit time)” value is on record as −0.12. For the setting “180 minutes”, the “Aldehyde consumption (100%)” value is 14.83% and the “Capture rate (slope of the capture curve per unit time)” value is −0.08.
Turning to `CN1c2ccccc2Oc2cc(C(C)(C)O)c(N)cc21` [Example 5, 2-(2-Amino-10-methyl-10H-phenoxazin-3-yl)propan-2-ol], under “135 minutes”, the “Aldehyde consumption (100%)” value is recorded as 15.06% and the “Capture rate (slope of the capture curve per unit time)” value is −0.14. Where the note is “180 minutes”, the “Aldehyde consumption (100%)” value stood at 19.05% and the “Capture rate (slope of the capture curve per unit time)” value was −0.10.
Consider `CC(C)(O)c1cc2c(cc1N)Oc1ccc(F)cc1O2` [Example 21], for which the “Aldehyde consumption (100%)” value by setting is: (135 minutes) 6.92%; (180 minutes) 10.06%. Further, the “Capture rate (slope of the capture curve per unit time)” value by setting is: (135 minutes) −0.05; (180 minutes) −0.05.
On to `CN1c2ccccc2Oc2cc(N)c(C(C)(C)O)cc21` [Example 6, 2-(3-Amino-10-methyl-10H-phenoxazin-2-yl)propan-2-ol], for which, under “135 minutes”, the “Aldehyde consumption (100%)” value was determined as 5.40% and the “Capture rate (slope of the capture curve per unit time)” value is reported as −0.08. Also, for the setting “180 minutes”, the “Aldehyde consumption (100%)” value is 11.94% and the “Capture rate (slope of the capture curve per unit time)” value was −0.07.
For `Cn1c2ccccc2c2nc(C(C)(C)O)c(N)cc21` [Example 11, 2-(3-Amino-5-methyl-5H-pyrido[3,2-b]indol-2-yl)propan-2-ol], under “135 minutes”, the “Aldehyde consumption (100%)” value turned out to be 7.71% and the “Capture rate (slope of the capture curve per unit time)” value is −0.06. Further, where the note is “180 minutes”, the “Aldehyde consumption (100%)” value amounted to 12.33% and the “Capture rate (slope of the capture curve per unit time)” value was −0.08.
The matching figures for `CC(C)(O)c1nc2oc3ccccc3c2cc1N` [Example 1, 2-(3-Aminobenzofuro[2,3-b]pyridin-2-yl)propan-2-ol]: 24.57%, −0.13, 34.69% and −0.14.
On to `CC(C)(O)c1cc2c(cc1N)Oc1cc(Cl)ccc1O2` [Example 25], for which, where the note is “135 minutes”, the “Aldehyde consumption (100%)” value was 4.87% and the “Capture rate (slope of the capture curve per unit time)” value was −0.03. Also, where the note is “180 minutes”, the “Aldehyde consumption (100%)” value is recorded as 4.88% and the “Capture rate (slope of the capture curve per unit time)” value is given as −0.03.
As for `CC(C)(O)c1cc2c(cc1N)Oc1cccnc1O2` [Example 19, 2-(7-Aminobenzo[5,6][1,4]dioxino[2,3-b]pyridin-8-yl)propan-2-ol], the “Aldehyde consumption (100%)” value is reported as 19.40% (135 minutes) and 36.90% (180 minutes). Also, the “Capture rate (slope of the capture curve per unit time)” value is on record as −0.14 (135 minutes) and −0.25 (180 minutes).
The matching figures for `Cn1c2ccccc2c2cc(N)c(C(C)(C)O)cc21` [Example 3, 2-(3-Amino-9-methyl-9H-carbazol-2-yl)propan-2-ol]: 0.11%, 1.38%, −0.01 and −0.02.
On to `CC(C)(O)c1nc2c(cc1N)oc1ccccc12` [Example 10, 2-(3-Aminobenzofuro[3,2-b]pyridin-2-yl)propan-2-ol], for which the “Aldehyde consumption (100%)” value is recorded as 9.15% (135 minutes) and 9.48% (180 minutes). For the same molecule, the “Capture rate (slope of the capture curve per unit time)” value runs as follows: (135 minutes) −0.08; (180 minutes) −0.06.
The matching figures for `CC(C)(O)c1cc2c(cc1N)Oc1ncccc1O2` [Example 15, 2-(8-Aminobenzo[5,6][1,4]dioxino[2,3-b]pyridin-7-yl)propan-2-ol]: 23.50%, 30.00%, −0.15 and −0.17.
The matching figures for `CC(C)(O)c1cc2c(cc1N)Oc1cc(F)ccc1O2` [Example 20]: 23.91%, 25.45%, −0.18 and −0.14.
With `CC(C)(O)c1cc2c(cc1N)N(Cc1ccccc1)c1ccccc1O2` [Example 27, 2-(2-Amino-10-benzyl-10H-phenoxazin-3-yl)propan-2-ol], under “135 minutes”, the “Aldehyde consumption (100%)” value is 14.37% and the “Capture rate (slope of the capture curve per unit time)” value is on record as −0.11. Also, where the note is “180 minutes”, the “Aldehyde consumption (100%)” value worked out at 17.87% and the “Capture rate (slope of the capture curve per unit time)” value was −0.10.
For `CC(C)(O)c1cc2c(cc1N)Oc1ccc(Cl)cc1O2` [Example 26], in that order: 2.02%, −0.02, 5.34% and −0.03.
As for `CC(C)(O)c1cc2oc3ccccc3c2cc1N` [Example 8, 2-(2-Aminodibenzo[b,d]furan-3-yl)propan-2-ol], the “Aldehyde consumption (100%)” value is, setting by setting: (135 minutes) 8.30%; (180 minutes) 17.80%. Also, the “Capture rate (slope of the capture curve per unit time)” value was −0.22 (135 minutes) and −0.07 (180 minutes).
`CC(C)(O)c1cc2c(cc1N)Oc1nccnc1O2` [Example 23, 2-(8-Aminobenzo[5,6][1,4]dioxino[2,3-b]pyrazin-7-yl)propan-2-ol]: where the note is “135 minutes”, the “Aldehyde consumption (100%)” value is 16.24% and the “Capture rate (slope of the capture curve per unit time)” value is −0.12. In addition, where the note is “180 minutes”, the “Aldehyde consumption (100%)” value turned out to be 17.89% and the “Capture rate (slope of the capture curve per unit time)” value is reported as −0.11.
As for `COC1c2ccccc2-c2cc(C(C)(C)O)c(N)cc21` (centres unmarked) [Example 28, 2-(2-Amino-9-methoxy-9H-fluoren-3-yl)propan-2-ol], under “135 minutes”, the “Aldehyde consumption (100%)” value stood at 3.77% and the “Capture rate (slope of the capture curve per unit time)” value is reported as −0.02. Where the note is “180 minutes”, the “Aldehyde consumption (100%)” value stood at 4.37% and the “Capture rate (slope of the capture curve per unit time)” value is on record as −0.03.
